In ChEMBL document CHEMBL1150977, “A quantitative analysis of kinase inhibitor selectivity” (Nat Biotechnol, 2008):

Columns and labels:
[1] = molecular target: T1, Serine/threonine-protein kinase Nek1 (Homo sapiens, UniProt Q96PY6)
T1 sequence (Q96PY6 whole entry): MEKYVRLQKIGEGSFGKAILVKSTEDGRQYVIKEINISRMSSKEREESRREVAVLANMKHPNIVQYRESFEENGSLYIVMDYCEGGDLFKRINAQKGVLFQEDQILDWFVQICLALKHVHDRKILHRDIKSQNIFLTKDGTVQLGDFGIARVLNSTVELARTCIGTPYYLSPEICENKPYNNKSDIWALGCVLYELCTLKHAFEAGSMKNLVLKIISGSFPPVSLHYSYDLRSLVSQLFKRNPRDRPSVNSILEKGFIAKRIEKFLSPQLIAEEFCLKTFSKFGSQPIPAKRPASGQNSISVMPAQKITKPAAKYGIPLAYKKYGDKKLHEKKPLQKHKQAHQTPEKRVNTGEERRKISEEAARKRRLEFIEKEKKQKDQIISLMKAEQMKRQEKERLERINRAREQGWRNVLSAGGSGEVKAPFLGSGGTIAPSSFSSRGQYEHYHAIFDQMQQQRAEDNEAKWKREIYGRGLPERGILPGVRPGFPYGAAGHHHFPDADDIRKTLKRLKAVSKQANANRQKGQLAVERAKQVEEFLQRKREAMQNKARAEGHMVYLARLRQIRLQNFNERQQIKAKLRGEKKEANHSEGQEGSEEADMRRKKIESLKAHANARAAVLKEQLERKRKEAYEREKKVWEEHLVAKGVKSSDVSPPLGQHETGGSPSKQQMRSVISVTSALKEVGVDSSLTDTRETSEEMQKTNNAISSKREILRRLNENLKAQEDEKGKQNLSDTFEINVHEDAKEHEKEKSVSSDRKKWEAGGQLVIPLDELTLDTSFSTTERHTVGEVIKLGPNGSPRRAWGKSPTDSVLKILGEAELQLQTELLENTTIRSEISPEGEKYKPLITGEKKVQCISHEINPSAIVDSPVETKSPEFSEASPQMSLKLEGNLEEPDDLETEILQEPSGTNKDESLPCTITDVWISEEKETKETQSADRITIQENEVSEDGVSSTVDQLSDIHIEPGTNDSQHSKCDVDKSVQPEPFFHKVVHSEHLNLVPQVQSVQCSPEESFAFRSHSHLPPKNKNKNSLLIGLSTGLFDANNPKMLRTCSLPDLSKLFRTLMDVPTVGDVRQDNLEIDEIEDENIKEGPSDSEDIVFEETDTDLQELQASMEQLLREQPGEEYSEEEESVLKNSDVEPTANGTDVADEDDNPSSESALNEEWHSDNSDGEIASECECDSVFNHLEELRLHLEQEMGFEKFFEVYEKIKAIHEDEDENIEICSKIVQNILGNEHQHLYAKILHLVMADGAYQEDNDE

Myosin-IIIb = molecular target: T2, Myosin-IIIb (Homo sapiens, UniProt Q8WXR4)
T2 sequence (Q8WXR4 whole entry): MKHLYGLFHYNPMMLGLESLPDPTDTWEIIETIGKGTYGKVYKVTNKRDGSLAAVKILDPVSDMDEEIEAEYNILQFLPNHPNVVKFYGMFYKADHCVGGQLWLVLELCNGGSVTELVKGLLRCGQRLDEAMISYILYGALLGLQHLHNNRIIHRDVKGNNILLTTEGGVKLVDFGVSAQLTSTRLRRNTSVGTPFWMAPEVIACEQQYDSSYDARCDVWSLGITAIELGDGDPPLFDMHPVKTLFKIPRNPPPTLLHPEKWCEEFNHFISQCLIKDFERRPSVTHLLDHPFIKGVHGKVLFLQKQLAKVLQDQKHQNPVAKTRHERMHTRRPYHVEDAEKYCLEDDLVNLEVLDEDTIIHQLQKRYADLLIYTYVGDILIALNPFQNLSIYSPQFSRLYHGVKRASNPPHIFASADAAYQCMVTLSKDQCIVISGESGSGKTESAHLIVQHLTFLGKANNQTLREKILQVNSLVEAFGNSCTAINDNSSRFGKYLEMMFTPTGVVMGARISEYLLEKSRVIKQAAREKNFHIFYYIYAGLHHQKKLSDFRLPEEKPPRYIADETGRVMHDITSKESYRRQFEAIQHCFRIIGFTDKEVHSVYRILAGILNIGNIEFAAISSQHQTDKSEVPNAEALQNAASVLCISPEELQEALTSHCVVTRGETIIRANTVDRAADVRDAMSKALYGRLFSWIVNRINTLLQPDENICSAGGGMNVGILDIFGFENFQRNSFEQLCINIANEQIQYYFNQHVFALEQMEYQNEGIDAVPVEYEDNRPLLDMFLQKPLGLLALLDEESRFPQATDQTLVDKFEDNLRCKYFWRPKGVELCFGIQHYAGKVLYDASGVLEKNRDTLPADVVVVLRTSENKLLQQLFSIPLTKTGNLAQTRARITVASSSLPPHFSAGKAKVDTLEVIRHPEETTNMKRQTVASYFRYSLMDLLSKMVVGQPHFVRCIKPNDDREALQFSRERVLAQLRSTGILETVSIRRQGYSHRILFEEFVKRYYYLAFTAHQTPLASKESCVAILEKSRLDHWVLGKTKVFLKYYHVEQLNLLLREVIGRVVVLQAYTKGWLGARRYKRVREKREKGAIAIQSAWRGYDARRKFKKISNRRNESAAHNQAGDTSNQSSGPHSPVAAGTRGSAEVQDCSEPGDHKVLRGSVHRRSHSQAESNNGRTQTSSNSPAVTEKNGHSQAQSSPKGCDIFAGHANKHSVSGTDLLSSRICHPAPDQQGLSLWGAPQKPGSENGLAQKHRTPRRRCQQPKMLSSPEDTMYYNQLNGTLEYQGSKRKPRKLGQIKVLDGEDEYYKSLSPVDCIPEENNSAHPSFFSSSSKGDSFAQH

[2] = molecular target: Proto-oncogene tyrosine-protein kinase ROS (Homo sapiens, UniProt P08922)
Sequence of Proto-oncogene tyrosine-protein kinase ROS (P08922 whole entry): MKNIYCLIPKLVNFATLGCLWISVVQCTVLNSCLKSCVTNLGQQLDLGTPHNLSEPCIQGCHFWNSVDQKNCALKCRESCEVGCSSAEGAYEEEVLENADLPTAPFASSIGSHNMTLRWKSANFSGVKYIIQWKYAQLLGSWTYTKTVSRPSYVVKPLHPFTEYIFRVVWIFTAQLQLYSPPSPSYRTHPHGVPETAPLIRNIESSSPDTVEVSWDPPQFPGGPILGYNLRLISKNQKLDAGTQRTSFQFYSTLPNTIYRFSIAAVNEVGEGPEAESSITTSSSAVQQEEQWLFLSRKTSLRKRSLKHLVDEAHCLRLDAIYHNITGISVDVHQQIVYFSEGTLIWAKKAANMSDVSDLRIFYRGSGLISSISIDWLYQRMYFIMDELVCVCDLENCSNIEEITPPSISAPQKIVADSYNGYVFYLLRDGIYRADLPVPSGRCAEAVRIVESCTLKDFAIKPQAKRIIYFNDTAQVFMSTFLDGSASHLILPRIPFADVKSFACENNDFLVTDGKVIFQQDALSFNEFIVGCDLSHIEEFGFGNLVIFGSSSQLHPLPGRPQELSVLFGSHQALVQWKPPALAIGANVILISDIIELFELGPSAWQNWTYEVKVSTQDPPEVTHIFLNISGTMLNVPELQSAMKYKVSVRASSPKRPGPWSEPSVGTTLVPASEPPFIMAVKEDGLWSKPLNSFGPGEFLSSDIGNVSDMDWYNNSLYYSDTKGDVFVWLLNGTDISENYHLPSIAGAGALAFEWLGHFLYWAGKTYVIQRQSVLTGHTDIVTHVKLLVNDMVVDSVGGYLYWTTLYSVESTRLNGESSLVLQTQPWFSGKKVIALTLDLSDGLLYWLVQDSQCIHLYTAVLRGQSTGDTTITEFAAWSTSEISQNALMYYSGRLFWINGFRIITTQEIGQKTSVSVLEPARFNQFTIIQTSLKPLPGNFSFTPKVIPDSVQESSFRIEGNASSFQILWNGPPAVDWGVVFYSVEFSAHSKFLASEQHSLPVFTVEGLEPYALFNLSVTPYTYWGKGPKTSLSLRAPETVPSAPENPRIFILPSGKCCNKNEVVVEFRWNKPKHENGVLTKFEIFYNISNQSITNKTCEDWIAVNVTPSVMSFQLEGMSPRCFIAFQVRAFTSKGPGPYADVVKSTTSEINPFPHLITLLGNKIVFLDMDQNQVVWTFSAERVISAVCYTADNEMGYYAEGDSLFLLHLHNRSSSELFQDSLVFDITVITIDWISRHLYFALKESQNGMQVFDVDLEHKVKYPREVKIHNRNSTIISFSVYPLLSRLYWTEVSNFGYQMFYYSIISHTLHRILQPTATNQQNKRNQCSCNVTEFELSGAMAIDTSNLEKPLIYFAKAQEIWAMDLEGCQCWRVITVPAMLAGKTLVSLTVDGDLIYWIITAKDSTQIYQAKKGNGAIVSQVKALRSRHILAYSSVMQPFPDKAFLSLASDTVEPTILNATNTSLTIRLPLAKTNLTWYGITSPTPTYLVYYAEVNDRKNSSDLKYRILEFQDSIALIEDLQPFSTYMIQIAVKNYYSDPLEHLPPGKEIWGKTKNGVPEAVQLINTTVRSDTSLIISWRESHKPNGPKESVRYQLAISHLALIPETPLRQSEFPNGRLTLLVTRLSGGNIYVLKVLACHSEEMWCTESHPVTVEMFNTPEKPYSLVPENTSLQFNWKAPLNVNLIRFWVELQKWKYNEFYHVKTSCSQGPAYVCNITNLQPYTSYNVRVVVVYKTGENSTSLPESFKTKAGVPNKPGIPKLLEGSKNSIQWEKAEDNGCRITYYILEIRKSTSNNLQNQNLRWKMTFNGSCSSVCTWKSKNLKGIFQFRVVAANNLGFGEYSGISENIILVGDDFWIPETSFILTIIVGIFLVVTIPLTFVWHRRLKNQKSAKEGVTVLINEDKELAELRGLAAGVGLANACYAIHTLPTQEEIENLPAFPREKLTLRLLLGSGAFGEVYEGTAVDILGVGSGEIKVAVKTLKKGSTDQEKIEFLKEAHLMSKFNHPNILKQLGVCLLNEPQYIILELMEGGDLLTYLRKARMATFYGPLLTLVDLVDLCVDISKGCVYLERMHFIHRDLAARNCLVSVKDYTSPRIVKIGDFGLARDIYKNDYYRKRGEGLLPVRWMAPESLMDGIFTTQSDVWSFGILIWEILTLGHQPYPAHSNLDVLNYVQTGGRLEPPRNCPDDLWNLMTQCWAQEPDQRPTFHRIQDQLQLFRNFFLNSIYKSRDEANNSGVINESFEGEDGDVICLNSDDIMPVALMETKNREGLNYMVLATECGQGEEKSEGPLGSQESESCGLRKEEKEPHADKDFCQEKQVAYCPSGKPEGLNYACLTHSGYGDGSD

[3] = molecular target: T3, Calcium/calmodulin-dependent protein kinase type IV (Homo sapiens, UniProt Q16566)
T3 sequence (Q16566 whole entry): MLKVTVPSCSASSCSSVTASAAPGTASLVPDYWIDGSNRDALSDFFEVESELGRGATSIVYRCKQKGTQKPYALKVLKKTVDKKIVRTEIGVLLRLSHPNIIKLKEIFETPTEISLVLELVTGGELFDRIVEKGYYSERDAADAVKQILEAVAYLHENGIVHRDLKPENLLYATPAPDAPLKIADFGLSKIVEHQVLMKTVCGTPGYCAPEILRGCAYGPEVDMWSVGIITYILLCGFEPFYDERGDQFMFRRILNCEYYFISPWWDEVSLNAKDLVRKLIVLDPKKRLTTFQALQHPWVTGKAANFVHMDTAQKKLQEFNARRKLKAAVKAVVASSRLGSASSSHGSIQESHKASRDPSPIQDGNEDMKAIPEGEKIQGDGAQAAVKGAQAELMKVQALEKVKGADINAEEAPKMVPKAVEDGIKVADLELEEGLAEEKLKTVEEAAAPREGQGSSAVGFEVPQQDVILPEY

Measured: Kd

CCN1CCN(Cc2ccc(NC(=O)Nc3ccc(Oc4cc(NC)ncn4)cc3)cc2C(F)(F)F)CC1 [AST-487]
> 10 µM: [1]

COCC(=O)NC/C=C/c1ccc2ncnc(Nc3ccc(Oc4ccc(C)nc4)c(C)c3)c2c1 [CP-724714]
> 10 µM: all assays above

Nc1nc(Nc2ccc(S(N)(=O)=O)cc2)nn1C(=O)c1c(F)cccc1F [JNJ-7706621]
> 10 µM: all assays above

CCOc1cc2ncc(C#N)c(Nc3ccc(F)c(Cl)c3)c2cc1NC(=O)/C=C/CN(C)C [PELITINIB]
> 10 µM: Myosin-IIIb | [2] | [3]

Oc1ccc(-c2nc(-c3ccncc3)c(-c3ccc(F)cc3)[nH]2)cc1 [SB-202190]
> 10 µM: all assays above

NC(=O)c1ccc(-c2nc(-c3ccc4c(c3)OCO4)c(-c3ccccn3)[nH]2)cc1 [SB-431542]
> 10 µM: all assays above
